Target: PRC2 containing wt EZH2 (Homo sapiens (Human), UniProt Q15910)
Assay: EZH2 biochemical assay (IC50), 3H-SAM incorporation into biotinylated H3 peptide
Conditions: 30 pM PRC2 containing wt EZH2; 3-5 h pre-incubation; read-out: EZH2 (IC50)
How it was run: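 Activity was measured as ³H-methyl transfer to a biotinylated H3K27me1 peptide over 18-22 h at room temperature, with capture on streptavidin flash plates. The 30 pM wt-EZH2 PRC2 complex was first pre-incubated 3-5 h with compound, 450 nM SAM/450 nM ³H-SAM and 2 µM H3K27me3 activator (pH 8.5, 0.8% DMSO). Four-parameter fits gave IC50.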

Chain of PRC2 containing wt EZH2 (Q15910 whole entry): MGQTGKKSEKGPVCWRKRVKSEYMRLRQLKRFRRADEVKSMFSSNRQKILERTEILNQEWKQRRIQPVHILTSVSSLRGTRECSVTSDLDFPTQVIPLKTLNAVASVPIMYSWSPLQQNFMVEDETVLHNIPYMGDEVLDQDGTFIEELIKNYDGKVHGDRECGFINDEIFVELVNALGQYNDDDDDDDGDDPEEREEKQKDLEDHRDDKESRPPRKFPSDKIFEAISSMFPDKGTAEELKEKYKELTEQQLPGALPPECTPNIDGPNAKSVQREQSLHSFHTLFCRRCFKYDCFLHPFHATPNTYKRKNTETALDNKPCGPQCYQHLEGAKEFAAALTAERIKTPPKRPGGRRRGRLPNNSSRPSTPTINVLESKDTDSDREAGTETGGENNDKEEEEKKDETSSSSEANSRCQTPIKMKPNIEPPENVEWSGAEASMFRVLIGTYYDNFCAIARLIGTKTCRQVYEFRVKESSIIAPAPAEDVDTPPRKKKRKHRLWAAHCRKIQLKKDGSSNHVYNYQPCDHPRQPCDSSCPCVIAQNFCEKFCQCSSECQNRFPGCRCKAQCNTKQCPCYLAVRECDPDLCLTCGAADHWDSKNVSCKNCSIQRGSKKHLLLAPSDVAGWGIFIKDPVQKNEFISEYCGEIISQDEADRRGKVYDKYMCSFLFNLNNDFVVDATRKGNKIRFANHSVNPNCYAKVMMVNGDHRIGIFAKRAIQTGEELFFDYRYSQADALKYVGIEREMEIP
Chain of PRC2 containing wt EZH2 (O75530 whole entry partner): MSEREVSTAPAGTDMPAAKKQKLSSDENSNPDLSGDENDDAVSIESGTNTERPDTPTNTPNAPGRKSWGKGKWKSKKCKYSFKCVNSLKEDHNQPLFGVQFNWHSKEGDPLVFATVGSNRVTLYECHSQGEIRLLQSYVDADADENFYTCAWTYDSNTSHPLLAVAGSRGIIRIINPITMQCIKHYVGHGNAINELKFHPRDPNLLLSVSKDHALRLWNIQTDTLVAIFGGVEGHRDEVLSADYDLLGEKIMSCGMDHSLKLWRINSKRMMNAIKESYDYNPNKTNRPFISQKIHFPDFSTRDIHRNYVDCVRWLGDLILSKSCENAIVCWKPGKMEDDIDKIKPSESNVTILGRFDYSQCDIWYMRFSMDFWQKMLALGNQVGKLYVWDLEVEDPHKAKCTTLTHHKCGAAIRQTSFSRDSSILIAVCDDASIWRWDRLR
Chain of PRC2 containing wt EZH2 (Q15022 whole entry partner): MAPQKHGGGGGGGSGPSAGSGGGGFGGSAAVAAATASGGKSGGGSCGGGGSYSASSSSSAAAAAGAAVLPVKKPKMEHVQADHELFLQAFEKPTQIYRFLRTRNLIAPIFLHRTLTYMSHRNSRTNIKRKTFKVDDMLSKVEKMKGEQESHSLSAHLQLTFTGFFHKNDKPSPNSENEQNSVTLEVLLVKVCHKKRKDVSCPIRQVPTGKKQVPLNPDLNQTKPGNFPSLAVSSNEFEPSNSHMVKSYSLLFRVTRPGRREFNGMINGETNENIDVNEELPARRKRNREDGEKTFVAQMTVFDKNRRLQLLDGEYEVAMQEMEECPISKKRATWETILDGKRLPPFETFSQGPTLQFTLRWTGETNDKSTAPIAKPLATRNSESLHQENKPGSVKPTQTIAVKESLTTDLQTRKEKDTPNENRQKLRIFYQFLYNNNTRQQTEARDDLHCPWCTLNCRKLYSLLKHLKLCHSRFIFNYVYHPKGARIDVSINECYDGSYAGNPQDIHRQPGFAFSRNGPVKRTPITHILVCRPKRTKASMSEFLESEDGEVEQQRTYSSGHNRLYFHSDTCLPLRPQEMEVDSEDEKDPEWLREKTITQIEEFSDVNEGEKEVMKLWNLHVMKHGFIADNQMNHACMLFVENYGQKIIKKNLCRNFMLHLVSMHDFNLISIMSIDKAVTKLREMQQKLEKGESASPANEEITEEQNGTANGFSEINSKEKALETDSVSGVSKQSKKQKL
Chain of PRC2 containing wt EZH2 (Q09028 whole entry partner): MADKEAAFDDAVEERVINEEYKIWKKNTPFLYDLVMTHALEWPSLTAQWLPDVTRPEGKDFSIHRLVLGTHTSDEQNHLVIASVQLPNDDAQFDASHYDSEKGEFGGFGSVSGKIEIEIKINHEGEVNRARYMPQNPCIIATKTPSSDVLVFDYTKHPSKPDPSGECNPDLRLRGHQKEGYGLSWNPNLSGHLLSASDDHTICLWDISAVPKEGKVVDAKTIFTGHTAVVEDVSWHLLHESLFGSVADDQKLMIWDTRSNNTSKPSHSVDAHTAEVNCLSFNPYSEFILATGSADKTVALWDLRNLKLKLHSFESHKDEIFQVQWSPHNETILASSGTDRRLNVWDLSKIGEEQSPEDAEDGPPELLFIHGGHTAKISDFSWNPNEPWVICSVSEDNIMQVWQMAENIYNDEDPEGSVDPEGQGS
Chain of PRC2 containing wt EZH2 (Q6ZN18 whole entry partner): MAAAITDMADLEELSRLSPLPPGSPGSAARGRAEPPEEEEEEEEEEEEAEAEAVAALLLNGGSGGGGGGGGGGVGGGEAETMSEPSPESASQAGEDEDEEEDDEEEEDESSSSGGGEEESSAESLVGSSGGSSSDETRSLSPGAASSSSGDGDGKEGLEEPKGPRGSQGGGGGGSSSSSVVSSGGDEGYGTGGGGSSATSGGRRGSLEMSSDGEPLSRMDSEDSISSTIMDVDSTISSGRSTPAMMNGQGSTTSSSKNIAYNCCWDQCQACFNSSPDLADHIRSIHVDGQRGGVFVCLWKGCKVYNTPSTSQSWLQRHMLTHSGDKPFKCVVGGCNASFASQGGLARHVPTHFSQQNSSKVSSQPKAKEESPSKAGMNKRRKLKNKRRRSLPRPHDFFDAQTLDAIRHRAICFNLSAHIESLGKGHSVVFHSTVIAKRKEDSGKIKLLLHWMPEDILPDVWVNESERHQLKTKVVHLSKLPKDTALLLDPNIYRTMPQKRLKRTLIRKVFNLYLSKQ

CSc1cc(C)[nH]c(=O)c1CNC(=O)c1c(C)n([C@H](C)C2CCC(N3CC(OC(F)F)C3)CC2)c2c(F)cccc12 (single isomer, unassigned) [121 (isomer 1)] and COc1cnc2c(c1)c(C(=O)NCc1c(SC)cc(C)[nH]c1=O)c(C)n2[C@H](C)C1CCC(N2CC(OC(F)F)C2)CC1 (single isomer, unassigned) [125 (isomer 1)] cannot be ordered by IC50: less than 0.5 nM for the first, less than 0.5 nM for the second.

First: CSc1cc(C)[nH]c(=O)c1CNC(=O)c1c(C)n([C@H](C)C2CCC(N3CC(OC(F)F)C3)CC2)c2c(F)cccc12 (single isomer, unassigned) [121 (isomer 2)]
Second: CSc1cc(C)[nH]c(=O)c1CNC(=O)c1c(C)n([C@H](C)C2CCC(N3CC(OC(F)(F)F)C3)CC2)c2ncncc12 (single isomer, unassigned) [123 (isomer 1)]
The IC50 of the first is higher: 0.5 to 5 nM for the first, less than 0.5 nM for the second. The second is the more potent here.

CSc1cc(C)[nH]c(=O)c1CNC(=O)c1c(C)n([C@H](C)C2CCC(N3CC(OC(F)(F)F)C3)CC2)c2ncncc12 (single isomer, unassigned) [123 (isomer 2)] and CSc1cc(C)[nH]c(=O)c1CNC(=O)c1c(C)n([C@H](C)C2CCC(OC(C)=O)CC2)c2ccccc12 (single isomer, unassigned) [134 (isomer 1)] cannot be ordered by IC50: less than 0.5 nM for the first, less than 0.5 nM for the second.

CSc1cc(C)[nH]c(=O)c1CNC(=O)c1c(C)n([C@H](C)C2CCC(OC(C)=O)CC2)c2ccccc12 (single isomer, unassigned) [134 (isomer 2)] and CSc1cc(C)[nH]c(=O)c1CNC(=O)c1c(C)n([C@H](C)C2CCC(OC(=O)C(C)C)CC2)c2ccccc12 (single isomer, unassigned) [144 (isomer 1)] cannot be ordered by IC50: less than 0.5 nM for the first, less than 0.5 nM for the second.

Compound CCCC(=O)OC1CCC([C@@H](C)n2c(C)c(C(=O)NCc3c(SC)cc(C)[nH]c3=O)c3ccccc32)CC1 (single isomer, unassigned) [143 (isomer 1)] has an IC50 of less than 0.5 nM.
CCCC(=O)OC1CCC([C@@H](C)n2c(C)c(C(=O)NCc3c(SC)cc(C)[nH]c3=O)c3ccccc32)CC1 (single isomer, unassigned) [143 (isomer 2)] gave an IC50 of less than 0.5 nM.

Same assay, conditions: EZH2 (IC50), 30 pM PRC2 containing wt EZH2; 3-5 h pre-incubation

First: CSc1cc(C)[nH]c(=O)c1CNC(=O)c1c(C)n([C@H](C)C2CCC(OC3COC3)CC2)c2ccccc12 (single isomer, unassigned) [137 (isomer 1)]
Second: CSc1cc(C)[nH]c(=O)c1CNC(=O)c1c(C)n([C@H](C)C2CCC(N3CC(C#N)C3)CC2)c2ccccc12 (single isomer, unassigned) [138 (isomer 1)]
The IC50 of the first is lower: less than 0.5 nM for the first, 0.5 to 5 nM for the second.

CSc1cc(C)[nH]c(=O)c1CNC(=O)c1c(C)n([C@H](C)C2CCC(N3CC(C#N)C3)CC2)c2ccccc12 (single isomer, unassigned) [138 (isomer 2)] and CSc1cc(C)[nH]c(=O)c1CNC(=O)c1c(C)n([C@H](C)C2CCC(N3CC34COC4)CC2)c2ncccc12 (single isomer, unassigned) [139 (isomer 1)] cannot be ordered by IC50: less than 0.5 nM for the first, less than 0.5 nM for the second.

Compound CSc1cc(C)[nH]c(=O)c1CNC(=O)c1c(C)n([C@H](C)C2CCC(N3CC34COC4)CC2)c2ncccc12 (single isomer, unassigned) [139 (isomer 2)] has an IC50 of 0.5 to 5 nM.

Same assay, conditions: read-out: EZH2 (IC50); 30 pM PRC2 containing wt EZH2; 3-5 h pre-incubation

CSc1cc(C)[nH]c(=O)c1CNC(=O)c1c(C)n([C@H](C)C2CCC(OC3COC3)CC2)c2ccccc12 (single isomer, unassigned) [137 (isomer 2)] was tested, and the IC50 was less than 0.5 nM.

Test system: H3K27me3 mark in HeLa cells (EZH2)
Assay: H3K27me3 Alpha Hela Assay (AlphaLISA)
Type: cell-based
Conditions: HeLa cells, 72 hrs; read-out: EZH2 Cell H3K27me3 Alpha HeLa (EC50 K27me3)
How it was run: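 HeLa cells (1,000/well) treated with ten 3-fold compound doses for 72 h at 37 °C; lysates extracted and H3K27me3 detected by AlphaLISA with anti-K27me3 acceptor beads, biotinylated anti-H3 (3 nM) and streptavidin donor beads. EC50 from DMSO-normalized dose-response curves; duplicate plate assessed viability.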

First: CSc1cc(C)[nH]c(=O)c1CNC(=O)c1c(C)n([C@H](C)C2CCC(N3CC(OC(F)F)C3)CC2)c2c(F)cccc12 (single isomer, unassigned) [121 (isomer 1)]
Second: CSc1cc(C)[nH]c(=O)c1CNC(=O)c1c(C)n([C@H](C)C2CCC(N3CC(C#N)C3)CC2)c2ccccc12 (single isomer, unassigned) [138 (isomer 2)]
The EC50 of the first is lower: less than 10 nM for the first, 10 to 100 nM for the second. The first is the more potent here.

Going from CSc1cc(C)[nH]c(=O)c1CNC(=O)c1c(C)n([C@H](C)C2CCC(N3CC(OC(F)F)C3)CC2)c2c(F)cccc12 (single isomer, unassigned) [121 (isomer 2)] to CSc1cc(C)[nH]c(=O)c1CNC(=O)c1c(C)n([C@H](C)C2CCC(N3CC(OC(F)(F)F)C3)CC2)c2ncncc12 (single isomer, unassigned) [123 (isomer 2)], the EC50 falls from greater than 100 nM to less than 10 nM.

CSc1cc(C)[nH]c(=O)c1CNC(=O)c1c(C)n([C@H](C)C2CCC(OC(C)=O)CC2)c2ccccc12 (single isomer, unassigned) [134 (isomer 2)] and CCCC(=O)OC1CCC([C@@H](C)n2c(C)c(C(=O)NCc3c(SC)cc(C)[nH]c3=O)c3ccccc32)CC1 (single isomer, unassigned) [143 (isomer 2)] cannot be ordered by EC50: less than 10 nM for the first, less than 10 nM for the second.

First: CSc1cc(C)[nH]c(=O)c1CNC(=O)c1c(C)n([C@H](C)C2CCC(OC3COC3)CC2)c2ccccc12 (single isomer, unassigned) [137 (isomer 2)]
Second: CSc1cc(C)[nH]c(=O)c1CNC(=O)c1c(C)n([C@H](C)C2CCC(N3CC34COC4)CC2)c2ncccc12 (single isomer, unassigned) [139 (isomer 2)]
The EC50 of the first is lower: less than 10 nM for the first, 10 to 100 nM for the second. The first is the more potent here.

Same assay, conditions: Homo sapiens, HeLa, 72 h, HeLa cells, 72 hrs; read-out: EZH2 Cell H3K27me3 Alpha HeLa (EC50 K27me3)

CSc1cc(C)[nH]c(=O)c1CNC(=O)c1c(C)n([C@H](C)C2CCC(N3CC(OC(F)(F)F)C3)CC2)c2ncncc12 (single isomer, unassigned) [123 (isomer 1)] and COc1cnc2c(c1)c(C(=O)NCc1c(SC)cc(C)[nH]c1=O)c(C)n2[C@H](C)C1CCC(N2CC(OC(F)F)C2)CC1 (single isomer, unassigned) [125 (isomer 1)] cannot be ordered by EC50: less than 10 nM for the first, less than 10 nM for the second.

CSc1cc(C)[nH]c(=O)c1CNC(=O)c1c(C)n([C@H](C)C2CCC(OC(C)=O)CC2)c2ccccc12 (single isomer, unassigned) [134 (isomer 1)] and CSc1cc(C)[nH]c(=O)c1CNC(=O)c1c(C)n([C@H](C)C2CCC(OC(=O)C(C)C)CC2)c2ccccc12 (single isomer, unassigned) [144 (isomer 1)] cannot be ordered by EC50: less than 10 nM for the first, less than 10 nM for the second.

CSc1cc(C)[nH]c(=O)c1CNC(=O)c1c(C)n([C@H](C)C2CCC(OC3COC3)CC2)c2ccccc12 (single isomer, unassigned) [137 (isomer 1)] and CCCC(=O)OC1CCC([C@@H](C)n2c(C)c(C(=O)NCc3c(SC)cc(C)[nH]c3=O)c3ccccc32)CC1 (single isomer, unassigned) [143 (isomer 1)] cannot be ordered by EC50: less than 10 nM for the first, less than 10 nM for the second.

CSc1cc(C)[nH]c(=O)c1CNC(=O)c1c(C)n([C@H](C)C2CCC(N3CC(C#N)C3)CC2)c2ccccc12 (single isomer, unassigned) [138 (isomer 1)] and CSc1cc(C)[nH]c(=O)c1CNC(=O)c1c(C)n([C@H](C)C2CCC(N3CC34COC4)CC2)c2ncccc12 (single isomer, unassigned) [139 (isomer 1)] fall in the same range of EC50: 10 to 100 nM for the first, 10 to 100 nM for the second.
